{"source": "paper PMC12064818", "about": "“A general assay platform to study protein pharmacology using ligand-dependent structural dynamics” (Nature Communications, 2025)", "molecular_target": "T1, T7 Lig-C-HiBiT (DNA ligase) (Escherichia phage T7, UniProt P00969)", "T1 sequence (P00969 2-359)": "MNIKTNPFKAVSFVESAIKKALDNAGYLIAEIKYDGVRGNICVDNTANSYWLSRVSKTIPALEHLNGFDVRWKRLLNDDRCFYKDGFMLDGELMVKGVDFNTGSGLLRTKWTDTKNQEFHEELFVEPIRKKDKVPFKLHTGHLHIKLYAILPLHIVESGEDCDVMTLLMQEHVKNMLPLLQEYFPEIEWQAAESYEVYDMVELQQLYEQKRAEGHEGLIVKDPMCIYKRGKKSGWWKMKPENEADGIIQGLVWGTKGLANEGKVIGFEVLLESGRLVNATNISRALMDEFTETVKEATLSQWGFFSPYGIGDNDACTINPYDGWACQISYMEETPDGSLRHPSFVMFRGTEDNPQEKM", "experiment": "SDR assay (aqueous ligand dispense), T7 Lig-C-HiBiT", "conditions": "for SDR assay data: 1 nM T7 Lig-C-HiBiT; for SDR assay data / SDR response: Log [ATP]; for SDR response: replicates", "key": {"[1]": {"conditions": "T7 Lig-C-HiBiT (1 nM), ligand 100 µM"}}, "note": "“And” between values parts separate entries of the source, which are not always exact repeats. Identical values can stand only once.", "data": [{"smiles": "Nc1ncnc2c1ncn2[C@@H]1O[C@H](COP(=O)(O)OP(=O)(O)OP(=O)(O)O)[C@@H](O)[C@H]1O", "note": "[ATP]", "values": [{"measurement": "EC50", "result": "≥ 100", "unit": "µM"}, {"measurement": "SDR assay data", "setting": "M -2.85", "result": "216.5 and 209.6 and 219.5"}, {"measurement": "SDR assay data", "setting": "M -3.15", "result": "141.4 and 163.1 and 159.6"}, {"measurement": "SDR assay data", "setting": "M -3.45", "result": "83.0 and 105.1 and 112.1"}, {"measurement": "SDR assay data", "setting": "M -3.75", "result": "54.1 and 71.7 and 73.7"}, {"measurement": "SDR assay data", "setting": "M -4.35", "result": "22.4 and 27.8 and 30.1"}, {"measurement": "SDR assay data", "setting": "M -4.65", "result": "18.5 and 22.1 and 22.3"}, {"measurement": "SDR assay data", "setting": "M -4.95", "result": "14.4 and 13.8"}, {"measurement": "SDR assay data", "setting": "M -5.25", "result": "9.3 and 8.9"}, {"measurement": "SDR assay data", "setting": "M -5.55", "result": "9.2 and 6.3"}, {"measurement": "SDR assay data", "setting": "M -6.16", "result": "7.3 and 4.5"}, {"measurement": "SDR assay data", "setting": "M -6.46", "result": "6.2 and 3.9 and 5.5"}, {"measurement": "SDR response", "setting": "M -2.85", "result": "216.5 and 209.6 and 219.5"}, {"measurement": "SDR response", "setting": "M -3.15", "result": "141.4 and 163.1 and 159.6"}, {"measurement": "SDR response", "setting": "M -3.45", "result": "83.0 and 105.1 and 112.1"}, {"measurement": "SDR response", "setting": "M -3.75", "result": "54.1 and 71.7 and 73.7"}, {"measurement": "SDR response", "setting": "M -4.05", "result": "18.5 and 46.9 and 44.7"}, {"measurement": "SDR response", "setting": "M -4.35", "result": "22.4 and 27.8 and 30.1"}, {"measurement": "SDR response", "setting": "M -4.65", "result": "18.5 and 22.1 and 22.3"}, {"measurement": "SDR response", "setting": "M -4.95", "result": "14.4 and 13.8"}, {"measurement": "SDR response", "setting": "M -5.25", "result": "9.3 and 8.9"}, {"measurement": "SDR response", "setting": "M -5.55", "result": "9.2 and 6.3"}, {"measurement": "SDR response", "setting": "M -5.86", "result": "6.9 and 3.3 and 6.8"}, {"measurement": "SDR response", "setting": "M -6.16", "result": "7.3 and 4.5"}, {"measurement": "SDR response", "setting": "M -6.46", "result": "6.2 and 3.9 and 5.5"}, {"measurement": "SDR response", "setting": "M -6.76", "result": "4.6 and 1.8 and 4.9"}, {"measurement": "SDR assay response (in words)", "setting": "T7 Lig-C-HiBiT", "result": "strong SDR signal"}, {"measurement": "SDR assay statistics Ave RLU", "setting": "[1]", "result": 70.8, "unit": "RLU"}, {"measurement": "SDR assay statistics S:B", "setting": "[1]", "result": 1.4}, {"measurement": "SDR assay statistics Z’", "setting": "[1]", "result": -0.186}, {"measurement": "max resp", "setting": "T7 Lig-C-HiBiT, maximum response", "result": 215.2}]}]}
